From ChEMBL document CHEMBL1201862, “PubChem BioAssay data set” (2004)
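In this assay, cells in 96-well plates receive the compound at five concentrations for 48 hours. Endpoints are linearly interpolated between the surrounding concentrations. GI50 is the concentration that inhibits growth by half.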 Activity calls are given as the source filed them. No stated cut-off is given here; in the data, active = GI50 up to about 1.1 µM and inactive = higher.

How the values were obtained:
Test in all cases: NCI tumour cell line growth inhibition, 48 h
NCI-H460 = test system: NCI-H460
U-251 = test system: U-251
SF-295 = test system: SF-295
HT-29 = test system: HT-29
KM12 = test system: KM12
SN12C = test system: SN12C
OVCAR-3 = test system: OVCAR-3
HCT-116 = test system: HCT-116
CCRF-CEM = test system: CCRF-CEM
RPMI-8226 = test system: RPMI-8226
COLO 205 = test system: COLO 205
K562 = test system: K562
HCC 2998 = test system: HCC 2998
OVCAR-4 = test system: OVCAR-4
CAKI-1 = test system: CAKI-1

Measured: GI50

C=C1CCC2(C(C)=O)COC1(C)O2 (configuration not stated)
inactive: NCI-H460 > 100 µM | U-251 > 100 µM | SF-295 > 100 µM | HT-29 > 100 µM | KM12 > 100 µM | SN12C > 100 µM | OVCAR-3 > 100 µM | HCT-116 > 100 µM | CCRF-CEM > 100 µM | RPMI-8226 > 100 µM | COLO 205 > 100 µM | K562 > 100 µM

CCOC(=O)NC(=O)c1cn(-c2ccc(CCOC(=O)CCCCCCCCC(=O)OCCc3ccc(-n4cc(C(=O)NC(=O)OCC)c(=O)[nH]c4=O)cc3)cc2)c(=O)[nH]c1=O
inactive: NCI-H460 > 100 µM | U-251 49.9 µM | SF-295 > 100 µM | HT-29 > 100 µM | KM12 > 100 µM | SN12C > 100 µM | HCC 2998 > 100 µM | OVCAR-3 > 100 µM | HCT-116 > 100 µM | CCRF-CEM > 100 µM | RPMI-8226 > 100 µM | OVCAR-4 > 100 µM | COLO 205 > 100 µM | K562 > 100 µM

Cn1cc(NC(=O)c2cc(NC(=O)CCCCCCCCCC(=O)Nc3cc(C(=O)Nc4cc(C(=O)NCCC(=N)N)n(C)c4)n(C)c3)cn2C)cc1C(=O)NCCC(=N)N
inactive: NCI-H460 23.9 µM | U-251 27.4 µM | SF-295 22.1 µM | HT-29 20.7 µM | KM12 13.1 µM | SN12C 32.2 µM | OVCAR-3 19.2 µM | HCT-116 24.5 µM | CCRF-CEM 22.6 µM | RPMI-8226 8.26 µM | OVCAR-4 34.8 µM | CAKI-1 32 µM | COLO 205 21.2 µM | K562 14.3 µM

COC1C2c3ccccc3C(C#N)(Cc3ccc4c(c32)OCO4)N1C(=O)c1ccccc1 (configuration not stated)
inactive: NCI-H460 25.9 µM | U-251 37.7 µM | SF-295 > 100 µM | HT-29 48 µM | KM12 24.9 µM | SN12C > 100 µM | HCC 2998 37.9 µM | OVCAR-3 42.5 µM | HCT-116 37.6 µM | CCRF-CEM 25.4 µM | RPMI-8226 16.3 µM | COLO 205 16.7 µM | K562 5.11 µM

C/C(CC(=O)Nc1cccc(Cl)c1C)=N\NC(N)=S
inactive: NCI-H460 > 100 µM | U-251 > 100 µM | SF-295 > 100 µM | HT-29 > 100 µM | KM12 > 100 µM | HCC 2998 > 100 µM | OVCAR-3 > 100 µM | HCT-116 > 100 µM | CCRF-CEM > 100 µM | RPMI-8226 > 100 µM | COLO 205 > 100 µM | K562 > 100 µM

CCOP12(OCC)NC(=O)OC1(C(F)(F)F)c1ccccc1O2 (configuration not stated)
inactive: NCI-H460 > 100 µM | SF-295 > 100 µM | HT-29 > 100 µM | KM12 > 100 µM | SN12C > 100 µM | OVCAR-3 > 100 µM | HCT-116 > 100 µM | CCRF-CEM > 100 µM | OVCAR-4 > 100 µM | K562 > 100 µM

C#CCSc1nc(N)c2ncn(C3OC(CO)C(O)C3O)c2n1 (configuration not stated)
inactive: NCI-H460 > 100 µM | U-251 > 100 µM | SF-295 > 100 µM | HT-29 > 100 µM | KM12 > 100 µM | SN12C > 100 µM | HCC 2998 > 100 µM | OVCAR-3 > 100 µM | HCT-116 > 100 µM | CCRF-CEM > 100 µM | RPMI-8226 > 100 µM | OVCAR-4 > 100 µM | COLO 205 > 100 µM | K562 > 100 µM

O=S(O)CCCCCSSCCCCSSCCCCCS(=O)O
inactive: NCI-H460 > 100 µM | U-251 > 100 µM | SF-295 > 100 µM | HT-29 > 100 µM | KM12 > 100 µM | SN12C > 100 µM | OVCAR-3 > 100 µM | CCRF-CEM 41.2 µM | RPMI-8226 97.5 µM | OVCAR-4 > 100 µM | CAKI-1 > 100 µM | COLO 205 > 100 µM | K562 48.1 µM
